In ChEMBL document CHEMBL1201862, “PubChem BioAssay data set” (2004):
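48-hour exposure; five concentrations; linearly interpolated endpoints. At the GI50, growth is halved.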 Activity calls are given as the source filed them. No stated cut-off is given here; in the data, active = GI50 up to about 1.1 µM and inactive = higher.

Tests used:
Test in all cases: NCI tumour cell line growth inhibition, 48 h
CCRF-CEM = tested on: CCRF-CEM
COLO 205 = tested on: COLO 205
HCT-15 = tested on: HCT-15
HT-29 = tested on: HT-29
IGROV-1 = tested on: IGROV-1
MCF7 = tested on: MCF7
MDA-MB-435 = tested on: MDA-MB-435
MOLT-4 = tested on: MOLT-4
NCI-H23 = tested on: NCI-H23
NCI-H522 = tested on: NCI-H522
OVCAR-3 = tested on: OVCAR-3
PC-3 = tested on: PC-3
RXF 393 = tested on: RXF 393
SK-MEL-5 = tested on: SK-MEL-5
T47D = tested on: T47D
U-251 = tested on: U-251
UO-31 = tested on: UO-31
HOP-92 = tested on: HOP-92
SR = tested on: SR

| SMILES | GI50 (CCRF-CEM) | GI50 (COLO 205) | GI50 (HCT-15) [µM] | GI50 (HT-29) | GI50 (IGROV-1) | GI50 (MCF7) | GI50 (MDA-MB-435) | GI50 (MOLT-4) | GI50 (NCI-H23) | GI50 (NCI-H522) | GI50 (OVCAR-3) | GI50 (PC-3) | GI50 (RXF 393) | GI50 (SK-MEL-5) | GI50 (T47D) | GI50 (U-251) | GI50 (UO-31) | GI50 (HOP-92) | GI50 (SR) |
| --- | --- | --- | --- | --- | --- | --- | --- | --- | --- | --- | --- | --- | --- | --- | --- | --- | --- | --- | --- |
| CCC(C)(C)c1ccc(Oc2cccc(C(=O)O)c2)cc1 | 28.9 µM (inactive) | 38.8 µM (inactive) | 39.5 | 44.4 µM (inactive) | > 100 µM (inactive) | 36.8 µM (inactive) | 45 µM (inactive) | 29.9 µM (inactive) | 52.2 µM (inactive) | 28.2 µM (inactive) | 26.7 µM (inactive) | 55 µM (inactive) | 98.6 µM (inactive) | 43.1 µM (inactive) | 33.7 µM (inactive) | 41.8 µM (inactive) | 48.1 µM (inactive) |  |  |
| O=C(c1ccc(Cl)c(Cl)c1)N(C(=S)OC12CC3CC(CC(C3)C1)C2)c1ccccc1 | 2.8 µM (inactive) | 15.9 µM (inactive) | 33.3 | 29.6 µM (inactive) |  | 28 µM (inactive) | 30.2 µM (inactive) |  | 28.9 µM (inactive) | 13.2 µM (inactive) | 39.4 µM (inactive) | 39.9 µM (inactive) | > 100 µM (inactive) | 19.5 µM (inactive) | 54.6 µM (inactive) | 34.6 µM (inactive) | 21.1 µM (inactive) | 31.8 µM (inactive) |  |
| COc1cc(/C=C2/SC(c3ccccc3)N(c3cccc(NC(C)=O)c3)C2=O)cc(OC)c1OC (configuration not stated) |  | 41.9 µM (inactive) | 46.9 | 38.6 µM (inactive) |  | 39.2 µM (inactive) | 35 µM (inactive) | 31.3 µM (inactive) | 44.9 µM (inactive) | 18.2 µM (inactive) | 60.1 µM (inactive) |  | 24.8 µM (inactive) | 24.8 µM (inactive) | 45.7 µM (inactive) |  | 16.6 µM (inactive) | 85.3 µM (inactive) | 23.4 µM (inactive) |
| CCOP(=O)(/C=C/n1cc(C)c(=O)[nH]c1=O)OCC | > 100 µM (inactive) | > 100 µM (inactive) | > 100 | > 100 µM (inactive) | > 100 µM (inactive) | > 100 µM (inactive) | > 100 µM (inactive) | > 100 µM (inactive) | > 100 µM (inactive) | > 100 µM (inactive) | > 100 µM (inactive) | > 100 µM (inactive) | > 100 µM (inactive) | > 100 µM (inactive) | > 100 µM (inactive) | > 100 µM (inactive) |  |  |  |
| CCN(CCO)CC1CCCC2CCCCC21 (configuration not stated) |  | > 100 µM (inactive) | > 100 | > 100 µM (inactive) | > 100 µM (inactive) | > 100 µM (inactive) | > 100 µM (inactive) |  | > 100 µM (inactive) | > 100 µM (inactive) | > 100 µM (inactive) | > 100 µM (inactive) | > 100 µM (inactive) | > 100 µM (inactive) | > 100 µM (inactive) | > 100 µM (inactive) | > 100 µM (inactive) | > 100 µM (inactive) |  |
| Cc1c(C(=O)CC(=O)C(=O)Nc2ccc(Cl)c(Cl)c2)[n+]([O-])c2ccccc2[n+]1[O-] | 17.2 µM (inactive) | 19.4 µM (inactive) | 20.5 | 29.9 µM (inactive) | 18.7 µM (inactive) |  |  | 20.8 µM (inactive) | 28.6 µM (inactive) | 18.9 µM (inactive) | 2.42 µM (inactive) |  | 27.4 µM (inactive) | 19.5 µM (inactive) |  | 26.8 µM (inactive) | 55.1 µM (inactive) | 27.5 µM (inactive) |  |
| CCOC(=O)c1c(N)n(-c2ccccc2)c(=O)n(-c2ccccc2)c1=O | > 10 µM (inactive) | > 100 µM (inactive) | > 100 | > 100 µM (inactive) | > 100 µM (inactive) | > 100 µM (inactive) | > 100 µM (inactive) | > 100 µM (inactive) | > 100 µM (inactive) | > 100 µM (inactive) | > 100 µM (inactive) |  | > 100 µM (inactive) | > 100 µM (inactive) | > 100 µM (inactive) | > 100 µM (inactive) | > 100 µM (inactive) | > 100 µM (inactive) | > 100 µM (inactive) |
| c1ccc(CN2CCC(Nc3ccccc3)(c3nnnn3Cc3ccccc3)CC2)cc1 | 20 µM (inactive) | 11.6 µM (inactive) | 27.5 | 11.6 µM (inactive) | 28.1 µM (inactive) | 22.4 µM (inactive) | 32.9 µM (inactive) | 10.1 µM (inactive) | 50 µM (inactive) |  |  |  | 27.4 µM (inactive) | 13 µM (inactive) | 19.5 µM (inactive) | 22.6 µM (inactive) | 6.12 µM (inactive) | 5.37 µM (inactive) | 8.77 µM (inactive) |
| CC[C@H]1C=CCC[C@@]2(C[C@@H]3CC[C@H]4[C@@H](C(=O)OCCCCCCCCCCCCCCCC(=O)N(CCCNC(C)=O)C[C@H](CCNC(C)=O)OC(C)=O)[C@@]5(CCC[C@@H](C)O5)NC(=[N+]34)N2)O1 |  | 1.28 µM (inactive) | 1.7 | 1.4 µM (inactive) | 1.31 µM (inactive) | 1.46 µM (inactive) | 1.64 µM (inactive) | 1.23 µM (inactive) | 1.58 µM (inactive) | 1.24 µM (inactive) | 0.787 µM (active) | 1.07 µM (active) | 1.79 µM (inactive) | 1.3 µM (inactive) |  | 0.914 µM (active) | 1.78 µM (inactive) | 1.11 µM (active) | 1.56 µM (inactive) |
| CCC(CCCN)Nc1cc(OC)cc2cccnc12 (configuration not stated) | 48.9 µM (inactive) | 33.6 µM (inactive) | > 100 | 32.4 µM (inactive) | 87.3 µM (inactive) | 29.4 µM (inactive) | > 100 µM (inactive) | > 10 µM (inactive) |  |  | 40.4 µM (inactive) | > 100 µM (inactive) | 41.3 µM (inactive) | 85.1 µM (inactive) |  |  | 70 µM (inactive) | > 100 µM (inactive) | 79.6 µM (inactive) |
| CN1c2ccccc2C(=O)NC12CCNCC2 | > 100 µM (inactive) | > 100 µM (inactive) |  | > 100 µM (inactive) | > 100 µM (inactive) | > 100 µM (inactive) | > 100 µM (inactive) | > 100 µM (inactive) | > 100 µM (inactive) |  |  |  | > 100 µM (inactive) | > 100 µM (inactive) | > 100 µM (inactive) | > 100 µM (inactive) | > 100 µM (inactive) | > 100 µM (inactive) | > 100 µM (inactive) |
| CCOP(=O)(O)C(C)(C)NC | > 100 µM (inactive) | > 100 µM (inactive) | > 100 | > 100 µM (inactive) | > 100 µM (inactive) |  | > 100 µM (inactive) | > 100 µM (inactive) | > 100 µM (inactive) | > 100 µM (inactive) | > 100 µM (inactive) | > 100 µM (inactive) | > 100 µM (inactive) | > 100 µM (inactive) | > 100 µM (inactive) | > 100 µM (inactive) | > 100 µM (inactive) | > 100 µM (inactive) |  |
| O=[N+]([O-])c1cc2ccc1OCc1cccc(n1)COc1ccc(cc1[N+](=O)[O-])/C=N\CCCCCCCC/N=C\2 | > 100 µM (inactive) | > 100 µM (inactive) | > 100 | > 100 µM (inactive) | > 100 µM (inactive) | > 100 µM (inactive) | > 100 µM (inactive) | > 100 µM (inactive) | > 100 µM (inactive) | > 100 µM (inactive) | > 100 µM (inactive) | > 100 µM (inactive) |  | > 100 µM (inactive) |  | > 100 µM (inactive) | > 100 µM (inactive) | > 100 µM (inactive) | > 100 µM (inactive) |
| O=c1[nH]c2ccc([N+](=O)[O-])c(Cl)c2c2ccccc12 | 0.361 µM (active) | 5.18 µM (inactive) | 3.56 | 0.887 µM (active) | 5.87 µM (inactive) | 0.258 µM (active) | 2.1 µM (inactive) | 0.91 µM (active) | 5.87 µM (inactive) | 3.13 µM (inactive) | 3.72 µM (inactive) |  |  | 3.84 µM (inactive) | 19.8 µM (inactive) | 4.43 µM (inactive) | 9.33 µM (inactive) |  | 1.85 µM (inactive) |
| COc1cc(C2=C(C)[C@@H]3CN(CC=C3c3ccc(Cl)cc3)C2)c(S(=O)(=O)O)cc1OC | > 100 µM (inactive) | > 100 µM (inactive) | > 100 | > 100 µM (inactive) | > 100 µM (inactive) |  | > 100 µM (inactive) | > 100 µM (inactive) | > 100 µM (inactive) | > 100 µM (inactive) | > 100 µM (inactive) | > 100 µM (inactive) | > 100 µM (inactive) | > 100 µM (inactive) | > 100 µM (inactive) | > 100 µM (inactive) | > 100 µM (inactive) | > 100 µM (inactive) | > 100 µM (inactive) |
| N#CC(=S)Nc1cccc(Cl)c1 | 30 µM (inactive) | 36.1 µM (inactive) | 27.9 | 19.5 µM (inactive) | 5.13 µM (inactive) | 46.8 µM (inactive) | 33.1 µM (inactive) | 34 µM (inactive) | 31.4 µM (inactive) |  | 16 µM (inactive) | 32.7 µM (inactive) | 26 µM (inactive) | 4.11 µM (inactive) | 27.2 µM (inactive) | 34.8 µM (inactive) |  | 35.6 µM (inactive) |  |
| CCN(CC)C(=S)SS(=O)(=O)c1ccccc1[N+](=O)[O-] | 2.51 µM (inactive) | > 53.5 µM (inactive) | 57.9 | 16.9 µM (inactive) | 0.504 µM (active) |  | 21.7 µM (inactive) | 0.415 µM (active) | > 54 µM (inactive) | 0.404 µM (active) | 22.2 µM (inactive) | 54.5 µM (inactive) | 20.8 µM (inactive) | 5.83 µM (inactive) | 28.1 µM (inactive) | 21.7 µM (inactive) | 14.5 µM (inactive) | 24 µM (inactive) | 0.359 µM (active) |
